Numbered stars: 1 amine (or outer) side, 2 acyl side, 3 side chain; on linkers, the order of the positions; unused ones are H or OH. Square brackets hold non-standard residues; d marks the D form. Peptide text beside a SMILES is read from it. dAla(ψthiazole) = C[C@@H](N[*:1])c1nc(C(=O)[*:2])cs1; Trp(4-OMe) = COc1cccc2[nH]cc(C[C@H](N)C(=O)O)c12; Dha = C=C(N)C(=O)O; Sar = CNCC(=O)O
Key:
[1] = tested on: p27^kip1-GFP fusion protein in HeLa cells; experiment: High throughput screen for p27 stabilizing substances; type: cell-based, human; conditions: 70 nM
Description: To identify substances which lead to an increase in the expression levels of p27^kip1 the inventors generated a cell based high throughput assay system (see materials and methods for details). […] As shown by flow cytometry, Argyrin A exerted two different cellular phenotypes at ranges of IC50. […] The apoptosis inducing activity of Argyrin A was confirmed by measuring DNA fragmentation using a histone fragmentation ELISA (FIG. 5B).
A cellular high throughput screen for p27 stabilizing compounds was established by stably introducing a DNA plasmid (EGFP-N1, Clontech) which allows the expression of p27^kip1-GFP fusion protein in HeLa cells. p27-GFP expressing cells were selected with neomycin and several independent clones were subcultured. HeLa p27-GFP cells were seeded in 384 well plates (Corning) and incubated with a set of highly diverse natural products (part of the Helmholtz Center for Infection Research myxobacterial metabolite collection) at a concentration of 70 nM. GFP emission was determined by fluorometric measurements using a Victor 1420 multilabel counter (Perkin Elmer) at 3 h, 24 h, 48 h and 60 h after the start of treatment. The proteasome inhibitor MG132 was used as a positive control.

p53, p21, BAX and NfκB = experiment: Accumulation of proteasome substrates by western blotting; type: cell-based, human; conditions: SW480 and HCT116 cell lines
Experimental: The expression levels of p27^kip1 were determined at the indicated timepoints by western blotting and normalized against actin expression which was used as an internal control.
Immunohistochemical staining of mouse tumour tissue, western Blotting and immunofluorescence experiments were done as previously described (Timmerbeul, I. et al. Testing the importance of p27 degradation by the SCFskp2 pathway in murine models of lung and colon cancer. Proc Natl Acad Sci USA 103, 14009-14 (2006). Kossatz, U. et al. C-terminal phosphorylation controls the stability and function of p27^kip1. Embo J 25, 5159-70 (2006).). The following antibodies were used: p27 (Cat. No. K25020-150; Transduction Labs), p21 (N20; Santa Cruz), p53 (FL-393; Santa Cruz), NfKB (C-20; Santa Cruz), Bax (P-19; Santa Cruz), Alexa fluor 488 (# A11001; Invitrogen), 20S-proteasome subunit beta 2 (Z) (PW9300; Bio-mol, for human cells), 20S-proteasome subunit beta 2 (Z) (PW8145; BIO TREND, for mouse cells); 20S proteasome subunit beta 1(Y) (PW8140; BIO TREND), 20S proteasome subunit beta 5 (PW8895; BIO TREND); PECAM Antibody clone MEC 13.3 (#550274; BD Pharmingen).

HeLa cells = experiment: Apoptosis in HeLa cells with p27^kip1 specific siRNA; type: cell-based, human; conditions: 24 or 48 hours
Description: Next the inventors tested whether the stabilization of p27 was indeed required for the apoptosis inducing function of Argyrin A or was merely a consequence of proteasome inhibition. For this the inventors treated immortalized mouse embryonic fibroblasts from p27^kip1 wildtype or knockout mice with Argyrin A or the proteasome inhibitor bortezomib and assayed cell cycle distribution and apoptosis by flow cytometry. […] These differences in sensitivity in response to Argyrin A treatment were not due to differences in the accumulation of other proteasomal substrates in p27 wildtype and knockout cells as p53 and p21 levels increased in both cell lines in response to Argyrin A (FIG. 6B). To extend this observation to human cancer cells the inventors reduced the levels of p27^kip1 in HeLa cells using p27^kip1 specific siRNA.
The results shown are the average numbers for six independent experiments. b+d) Wildtype (b) and p27 knockout (d) MEF were treated with Argyrin A or transfected with siRNAs specific for the β1, β2 or β5 subunit of the proteasome for 24 hours. The graphs show the remaining catalytic activity of the different proteasome subunits after Argyrin A or siRNA treatment compared to an untreated control (n=3). […]

20S proteasome = 20S proteasome activity in peripheral blood cells after i.p. injection; type: in vivo, mouse; conditions: peripheral blood lymphocytes
Experimental: The inventors therefore tested if Argyrin A induced p27^kip1 stabilization would be beneficial in the treatment of human colon cancer cell derived tumour xenografts. To analyze this the inventors first tested if Argyrin A was active after application in vivo. After intraperitoneal injection of Argyrin A, 20S proteasome was isolated from peripheral blood lymphocytes at different time points after injection. […] Based on this finding the inventors treated tumour bearing mice with 0.15 mg Argyrin per kilogram bodyweight injected intraperitoneally every three days.
At the indicated timepoints 20S proteasome was isolated from peripheral blood cells and the activity of the different proteasome subunits was determined as described (FIG. 1d). b) SW480 colon carcinoma cell lines mixed with matrigel were injected under the skin of nu/nu mice to establish xenotransplant tumours. Treatment with Argyrin A or bortezomib was started when these tumours reached a volume of 200 mm^3. […] The activity of the respective proteasome subunits was determined as described previously (FIG. 1d). e) Determination of the number of p27^kip1 positive cells in tumour tissue after Argyrin A treatment. […] At least 200 cells were counted on five independent sections to quantitate the number of apoptotic cells. […]
Proteasome assays using proteasome purified from cells or tissues were carried out in a 100 μL reaction volume containing 20 μg proteasome extract, 50 mmol/L EDTA and 60 μmol/L fluorogenic substrate (chymotrypsin-like (CT-L), trypsin-like (T-L) or caspase-like (C-L)) in ATP/DTT lysis buffer at 37° C. […] The rate of cleavage of fluorogenic peptide substrates was determined by monitoring the fluorescence of released amonomethylcoumarin using a Victor 1420 Multilabel counter (Wallac) at an excitation wavelength of 395 nm and emission wavelength of 460 nm over a period of 60 min.

For `C=C1NC(=O)[C@@H](C)NC(=O)CNC(=O)[C@H](Cc2c[nH]c3cccc(OC)c23)NC(=O)[C@H](Cc2c[nH]c3ccccc23)NC(=O)c2csc(n2)[C@@H](C)NC(=O)CN(C)C1=O` [Argyrin A] (cyclo(W[Trp(4-OMe)]G[dA][Dha][Sar][dAla(ψthiazole)])), which “increase in fluorescence (p27-GFP)” value [1] is on record?
The value was “strongest increase in fluorescence”.

What about the “levels of proteasome substrates p53, p21, BAX and NfκB” value (p53, p21, BAX and NfκB) of the same molecule?
Its value is “accumulated”.

And the “apoptosis inducing function in HeLa cells treated with p27siRNA” value (HeLa cells)?
The value was “completely blocked”.

And the “time at which all activities returned to base-line levels post injection” value (20S proteasome; i.p.)?
The value was 72 h.

And the “time of maximum inhibitory activity post injection” value (20S proteasome; i.p.)?
The value was 48 h.

What about the “proteasome activities after i.p. application” value (20S proteasome; mice) of the same molecule?
Its value is “inhibited all proteasome activities”.
